Source: patent US20130109682A1, “CYCLIC ETHER COMPOUNDS USEFUL AS KINASE INHIBITORS” (NOVARTIS AG, priority 2010, published 2013)

What was measured:
PIM1 = PIM1 (Homo sapiens, UniProt P11309); experiment: KinaseGlo Pim1 ATP depletion assay; format: biochemical
Method in brief: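 2.5 nM PIM1 preincubated 15 min with compound and 40 μM BAD peptide in 50 mM HEPES pH 7.5, 5 mM MgCl2, 1 mM DTT, 0.05% BSA, 2.5% DMSO. The reaction was started with 20 μM ATP (final) and run to about 50% ATP depletion. Remaining ATP read by KinaseGlo Plus luminescence to give IC50.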

PIM2 = PIM2 (Homo sapiens, UniProt Q9P1W9); experiment: KinaseGlo Pim2 ATP depletion assay; format: biochemical
Method in brief: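 Luminescent ATP-depletion read-out of PIM2 phosphorylating BAD peptide (RSRHSSYPAGT-OH). Final conditions: 5 nM PIM2, 4 μM ATP, 10 μM peptide, 2.5% DMSO in 50 mM HEPES pH 7.5, 5 mM MgCl2, 1 mM DTT, 0.05% BSA. Enzyme–peptide preincubated 15 min with compound; reaction run to ~50% ATP depletion.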

PIM3 = PIM3 (Homo sapiens, UniProt Q86V86); experiment: KinaseGlo Pim3 ATP depletion assay; format: biochemical
Method in brief: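 Kinase was preincubated 15 min with BAD peptide in HEPES pH 7.5/MgCl2/DTT/BSA before ATP was added. Final concentrations were 40 μM ATP, 100 μM BAD peptide and 2.5% DMSO, with 5 nM enzyme. The reaction ran to ~50% ATP depletion and remaining ATP was read by KinaseGlo Plus luminescence.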

GSK3β = GSK3β (Homo sapiens, UniProt P49841); experiment: GSK3β ATP depletion assay; format: biochemical; conditions: read-out: GSK3b IC50
Method in brief: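 Human GSK3β (5 nM) preincubated 15 min with 10 μM biotinylated phospho-CREB peptide in pH 7.5 Tris buffer (15 mM MgCl2, 1 mM DTT, 0.1% BSA, 2.5% DMSO). Reaction started with 2 μM ATP and run to about 50% ATP depletion. Remaining ATP measured by KinaseGlo luminescence.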

[1] = test system: KMS11 (human myeloma cell line); experiment: Cell proliferation assay (CellTiter-Glo), KMS11; format: cell-based; conditions: Homo sapiens, KMS-11; KMS11-Luc cells
Method in brief: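 KMS11 cells in IMDM with 10% FBS and sodium pyruvate, seeded at 2000 cells/well on assay day. Compound added at 2× to equal volume of cells, incubated 3 days at 37° C. Viability read by CellTiter-Glo luminescence; EC50 derived.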

PIM2, sequence (Q9P1W9 whole entry): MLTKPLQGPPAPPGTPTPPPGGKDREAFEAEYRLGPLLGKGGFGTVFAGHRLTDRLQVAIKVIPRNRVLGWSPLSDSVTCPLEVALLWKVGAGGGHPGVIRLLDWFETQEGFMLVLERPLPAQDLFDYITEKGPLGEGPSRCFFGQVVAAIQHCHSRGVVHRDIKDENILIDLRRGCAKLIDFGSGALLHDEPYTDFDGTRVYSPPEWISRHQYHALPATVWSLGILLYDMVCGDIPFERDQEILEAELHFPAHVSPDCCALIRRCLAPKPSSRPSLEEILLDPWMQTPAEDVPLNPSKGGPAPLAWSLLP
GSK3β, sequence (P49841 whole entry, species assumed): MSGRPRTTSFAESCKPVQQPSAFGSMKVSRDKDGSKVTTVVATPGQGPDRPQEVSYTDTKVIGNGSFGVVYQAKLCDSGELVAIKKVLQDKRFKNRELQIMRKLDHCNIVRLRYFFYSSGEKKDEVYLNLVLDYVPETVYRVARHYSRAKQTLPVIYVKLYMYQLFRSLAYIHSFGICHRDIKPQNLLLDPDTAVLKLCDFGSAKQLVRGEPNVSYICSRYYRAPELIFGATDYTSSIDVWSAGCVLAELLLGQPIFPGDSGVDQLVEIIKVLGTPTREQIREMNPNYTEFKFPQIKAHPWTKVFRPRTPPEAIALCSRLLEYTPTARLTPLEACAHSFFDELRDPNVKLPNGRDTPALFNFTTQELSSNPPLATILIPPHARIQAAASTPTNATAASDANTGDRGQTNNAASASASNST
PIM1, sequence (P11309 whole entry): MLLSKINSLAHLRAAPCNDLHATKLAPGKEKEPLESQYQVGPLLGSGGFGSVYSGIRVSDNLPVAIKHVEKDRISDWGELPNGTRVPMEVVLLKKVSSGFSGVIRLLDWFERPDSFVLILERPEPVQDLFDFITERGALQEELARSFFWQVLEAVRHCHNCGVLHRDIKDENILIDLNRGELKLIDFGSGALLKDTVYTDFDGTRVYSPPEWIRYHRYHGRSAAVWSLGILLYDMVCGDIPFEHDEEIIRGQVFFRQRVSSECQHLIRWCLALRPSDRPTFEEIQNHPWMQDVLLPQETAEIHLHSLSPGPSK

| IC50 (PIM1) [nM] | IC50 (PIM2) [nM] | IC50 (PIM3) [nM] | IC50 (GSK3β) [nM] | EC50 [1] [nM] | Structure (SMILES) |
| --- | --- | --- | --- | --- | --- |
| 1 | 3 | 2 | 15 | 6900 | Nc1cc(F)c(-c2ccccc2F)nc1C(=O)Nc1cnccc1[C@H]1C[C@@H](O)[C@H](O)[C@@H](CCl)O1 [Example 38, 3-amino-N-(4-((2R,4R,5S,6S)-6-(chloromethyl)-4,5-dihydroxytetrahydro-2H-pyran-2-yl)pyridin-3-yl)-5-fluoro-6-(2-fluorophenyl)picolinamide] |
| 5.7 | 9.5 | 5.1 | 345 | > 10000 | C[C@H]1O[C@@H](c2ccncc2NC(=O)c2nc(-c3c(F)cccc3F)ncc2N)C[C@@H](O)[C@]1(C)O [Example 146, 5-amino-2-(2,6-difluorophenyl)-N-(4-((2R,4R,5S,6R)-4,5-dihydroxy-5,6-dimethyltetrahydro-2H-pyran-2-yl)pyridin-3-yl)pyrimidine-4-carboxamide] |
| 8.7 | 66 | 12 | 1170 | > 10000 | CC[C@]1(O)[C@H](O)C[C@H](c2ccncc2NC(=O)c2nc(-c3nccs3)ccc2N)O[C@@H]1C [Example 3, 3-amino-N-(4-((2R,4R,5S,6R)-5-ethyl-4,5-dihydroxy-6-methyltetrahydro-2H-pyran-2-yl)pyridin-3-yl)-6-(thiazol-2-yl)picolinamide] |
| 0.6 | 2.6 | 4 | 252 | 800 | Nc1ccc(-c2c(F)cccc2F)nc1C(=O)Nc1cnccc1[C@H]1C[C@@H](N)[C@@]2(O)CCC[C@H]2O1 [Example 215, 3-amino-N-(4-((2R,4R,4aS,7aR)-4-amino-4a-hydroxyoctahydrocyclopenta[b]pyran-2-yl)pyridin-3-yl)-6-(2,6-difluorophenyl)picolinamide] |
| 6610 | > 250000 | 23800 | 543 | > 10000 | O=C(Nc1cnccc1[C@@H]1C[C@H](O)[C@]2(O)CCC[C@@H]2O1)c1ccnn(-c2ccccc2F)c1=O [Example 203, N-(4-((2S,4S,4aR,7aS)-4,4a-dihydroxyoctahydrocyclopenta[b]pyran-2-yl)pyridin-3-yl)-2-(2-fluorophenyl)-3-oxo-2,3-dihydropyridazine-4-carboxamide] |
| 6 | 465 | 33 | 196 | > 10000 | O=C(Nc1cnccc1[C@@H]1C[C@H](O)CCO1)c1ccc(F)c(-c2c(F)cccc2F)n1 [Example 132, 6-(2,6-difluorophenyl)-5-fluoro-N-(4-((2S,4R)-4-hydroxytetrahydro-2H-pyran-2-yl)pyridin-3-yl)picolinamide] |
| 1 | 1 | 1 | 201 | 825 | Nc1cc(F)c(-c2c(F)cccc2F)nc1C(=O)Nc1cnccc1C1=C[C@@H](O)[C@H](O)[C@@H](CCl)O1 [Example 30, 3-amino-N-(4-((2S,3S,4R)-2-(chloromethyl)-3,4-dihydroxy-3,4-dihydro-2H-pyran-6-yl)pyridin-3-yl)-6-(2,6-difluorophenyl)-5-fluoropicolinamide] |
| 28 | 2890 | 103 | 2000 | > 10000 | O=C(Nc1cnccc1[C@H]1OCC[C@@H](CO)O1)c1csc(-c2c(F)cccc2F)n1 [Example 102, 2-(2,6-difluorophenyl)-N-(4-((2S,4S)-4-(hydroxymethyl)-1,3-dioxan-2-yl)pyridin-3-yl)thiazole-4-carboxamide] |
| 1 | 5 | 3 | 220 | 7650 | N#C[C@H]1O[C@@H](c2ccncc2NC(=O)c2nc(-c3c(F)cccc3F)c(F)cc2N)C[C@@H](O)[C@@H]1O [Example 12, 3-amino-N-(4-((2R,4R,5S,6R)-6-cyano-4,5-dihydroxytetrahydro-2H-pyran-2-yl)pyridin-3-yl)-6-(2,6-difluorophenyl)-5-fluoropicolinamide] |
| 19 | 111 | 28 | 2000 | 6100 | COC[C@H]1O[C@@H](c2ccncc2NC(=O)c2ccc(F)c(-c3c(F)cccc3F)n2)C[C@@H](O)[C@@H]1O [Example 57, 6-(2,6-difluorophenyl)-N-(4-((2R,4R,5S,6R)-4,5-dihydroxy-6-(methoxymethyl)tetrahydro-2H-pyran-2-yl)pyridin-3-yl)-5-fluoropicolinamide] |
| 42 | 13 | 8.3 | 51 | > 10000 | CC[C@H]1O[C@@H](c2ccncc2NC(=O)c2ccc(F)c(-c3c(F)ccc(C#N)c3F)n2)C[C@@H](O)[C@@H]1O [Example 2, 6-(3-cyano-2,6-difluorophenyl)-N-(4-((2R,4R,5S,6R)-6-ethyl-4,5-dihydroxytetrahydro-2H-pyran-2-yl)pyridin-3-yl)-5-fluoropicolinamide] |
| 1 | 1 | 1 | 188 | 1700 | CC[C@H]1O[C@@H](c2ccncc2NC(=O)c2nc(-c3c(F)cccc3F)c(F)cc2N)C[C@@H](O)[C@@H]1O [Example 43, 3-amino-6-(2,6-difluorophenyl)-N-(4-((2R,4R,5S,6R)-6-ethyl-4,5-dihydroxytetrahydro-2H-pyran-2-yl)pyridin-3-yl)-5-fluoropicolinamide] |
| 1 | 149 | 7 | 76 | > 10000 | C[C@@H]1O[C@H](c2ccncc2NC(=O)c2csc(-c3c(F)cccc3F)n2)C[C@H](O)[C@H]1O (stereo in doubt) [Example 135, 2-(2,6-difluorophenyl)-N-(4-((2S,4S,5R,6S)-4,5-dihydroxy-6-methyltetrahydro-2H-pyran-2-yl)pyridin-3-yl)thiazole-4-carboxamide] |
| 12 | 65 | 17 | 14 | > 10000 | O=C(Nc1cnccc1[C@H]1C[C@@H](O)[C@H](O)[C@@H](CCl)O1)c1ccnc(-c2c(F)cccc2F)n1 [Example 37, N-(4-((2R,4R,5S,6S)-6-(chloromethyl)-4,5-dihydroxytetrahydro-2H-pyran-2-yl)pyridin-3-yl)-2-(2,6-difluorophenyl)pyrimidine-4-carboxamide] |
| 7 | 599 | 20 | 65 | > 10000 | O=C(Nc1cnccc1[C@H]1C[C@@H](O)CC2(CC2)O1)c1csc(-c2c(F)cccc2F)n1 [Example 61, 2-(2,6-difluorophenyl)-N-(4-((5R,7R)-7-hydroxy-4-oxaspiro[2.5]octan-5-yl)pyridin-3-yl)thiazole-4-carboxamide] |
| 11 | 502 | 27 | 2420 | > 10000 | O=C(Nc1cnccc1[C@H]1OCC[C@@H](CO)O1)c1ccc(F)c(-c2c(F)cccc2F)n1 [Example 103, 6-(2,6-difluorophenyl)-5-fluoro-N-(4-((2S,4S)-4-(hydroxymethyl)-1,3-dioxan-2-yl)pyridin-3-yl)picolinamide] |
| 1 | 7 | 4 | 177 | 7370 | C=C[C@H]1OC(c2ccncc2NC(=O)c2nc(-c3ccccc3F)c(F)cc2N)=C[C@@H](O)[C@@H]1O [Example 24, 3-amino-N-(4-((2R,3S,4R)-3,4-dihydroxy-2-vinyl-3,4-dihydro-2H-pyran-6-yl)pyridin-3-yl)-5-fluoro-6-(2-fluorophenyl)picolinamide] |
| 2 | 36 | 7 | 1170 | > 10000 | C[C@@H]1O[C@H](c2ccncc2NC(=O)c2ccc(F)c(-c3c(F)cccc3F)n2)[C@@H](O)[C@H](O)[C@@]1(C)O (stereo in doubt) [Example 82, 6-(2,6-difluorophenyl)-5-fluoro-N-(4-((2R,3S,4S,5R,6S)-3,4,5-trihydroxy-5,6-dimethyltetrahydro-2H-pyran-2-yl)pyridin-3-yl)picolinamide] |
| 754 | 6910 | 1100 | 4400 | > 10000 | CC[C@H]1O[C@@H](c2ccncc2NC(=O)c2c[nH]cc(-c3ccccc3F)c2=O)C[C@@H](O)[C@@H]1O [Example 202, N-(4-((2R,4R,5S,6R)-6-ethyl-4,5-dihydroxytetrahydro-2H-pyran-2-yl)pyridin-3-yl)-5-(2-fluorophenyl)-4-oxo-1,4-dihydropyridine-3-carboxamide] |
